Measured values reported in patent publication EP0964681B1, “ANTICONVULSANT DERIVATIVES USEFUL IN TREATING PSORIASIS” (Ortho-McNeil Pharmaceutical, Inc., priority 1996, dated 1998).
Like-named read-outs stand apart in the source and are kept apart here.

Tests used:
[1] = tested on: psoriatic lesions; assay: Clinical studies of topiramate in epilepsy; patients who coincidentally had psoriasis; format: in vivo, human; conditions: reported by at least three epilepsy-trial patients who coincidentally had psoriasis
Method: The activity of the compounds of formula I in treating psoriasis was first evidenced in clinical studies conducted to evaluate the efficacy of topiramate in treating epilepsy. […] Therefore, preclinical in vitro studies were conducted to evaluate the effects of topiramate on keratinocyte function as a putative mechanism of action for its potential beneficial effects in treating psoriasis. One of the hallmarks of psoriatic lesions is hyperproliferative epidermal keratinocytes. In general, agents that affect the proliferation of keratinocytes have an inverse effect on differentiation, i.e. they would inhibit growth and enhance differentiation. Two measures of keratinocyte function were therefore evaluated: cell growth and differentiation.

[2] = tested on: keratinocytes; assay: Keratinocyte cell growth induced by EGF and BPE; format: cell-based; conditions: six days of treatment
Method: In these studies, keratinocytes were grown in Medium154, a low calcium medium supplemented with bovine pituitary extract (BPE), bovine insulin, bovine transferrin, human epidermal growth factor (EGF) and hydrocortisone. Keratinocytes were grown to 60-80% confluence and subcultured by using trypsin/EDTA. Four separate experiments were performed to evaluate the dose-dependent effect of topiramate on keratinocyte cell growth as measured by […] after six days of treatment. Topiramate was dissolved in DMSO to make a 100 mM stock solution. In all experiments the final concentration of DMSO in the cell incubation medium was 0.1%. Vehicle controls (0.1% DMSO) were included in each experiment. Cell growth was induced by a combination of the growth factors EGF and BPE.

[3] = tested on: keratinocytes; assay: Keratinocyte differentiation measured by expression of transglutaminase-1 protein; format: cell-based
Method: In these studies, keratinocytes were grown in Medium154, a low calcium medium supplemented with bovine pituitary extract (BPE), bovine insulin, bovine transferrin, human epidermal growth factor (EGF) and hydrocortisone. Keratinocytes were grown to 60-80% confluence and subcultured by using trypsin/EDTA. The effect of topiramate on keratinocyte differentiation was measured by the expression of transglutaminase-1 protein after three days of treatment. Three separate experiments were performed. Differentiation was evaluated in both low calcium and high calcium incubation conditions. An increase in differentiation would be most readily observed under low calcium conditions whereas an inhibition of differentiation could be detected under conditions of high calcium-induced differentiation. […] A follow-up study was conducted which extended the incubation time to 5 days to look for further enhancement.

[4] = tested on: simple and complex partial seizures and secondarily generalized seizures; conditions: clinical trials; adjunctive therapy or monotherapy; cited from earlier work
[5] = tested on: seizures; conditions: several rodent models of epilepsy; cited from earlier work
[6] = tested on: seizures; conditions: animal model of kindled epilepsy; cited from earlier work

- transglutaminase-1 protein ([3]; follow-up study, incubation time extended to 5 days): No additional increases
- transglutaminase-1 protein ([3]; high calcium incubation conditions, three days of treatment): modest increase
- transglutaminase-1 protein ([3]; low calcium incubation conditions, three days of treatment): modest increase
Compound: CC1(C)O[C@@H]2[C@@H](CO[C@@]3(COS(N)(=O)=O)OC(C)(C)O[C@@H]23)O1 [topiramate, 2,3:4,5-bis-O-(1-methylethylidene)-β-D-fructopyranose sulfamate]
- psoriatic lesions [1]: marked reduction in the psoriatic lesions
- Emax at 10 µM ([2]; Keratinocyte, 144 h, 10 micromolar, growth induced by EGF and BPE, four experiments, not statistically significant (p>0.05), read-out: inhibition of cell growth (maximal response)): 32 ± 10%
- dose dependence of the effect on keratinocyte cell growth ([2]; four experiments): no dose dependence was observed
- effect on keratinocyte cell growth ([2]; growth induced by EGF and BPE, 0.1% DMSO): modest inhibitory effect
- efficacy in treating simple and complex partial seizures and secondarily generalized seizures [4]: effective as adjunctive therapy or as monotherapy
- block of seizures [5]: effectively block seizures
- block of seizures [6]: effectively block seizures
